What all share (test): inhibition of tumour cell growth, NCI panel, 48 h
Experiment [1] deals with ACHN.
The subject of experiment [2] is MDA-MB-231.
The subject of experiment [3] is MDA-MB-435.
Experiment [4] relates to RPMI-8226.
The test system of experiment [5] is SK-MEL-5.
The subject of experiment [6] is Malme-3M.
Experiment [7] relates to A498.
For experiment [8], the system named is SW-620.
Experiment [9] has as its system OVCAR-4.
The subject of experiment [10] is HOP-62.
The subject of experiment [11] is SK-MEL-28.
Experiment [12] deals with HCC 2998.
The test system of experiment [13] is RXF 393.
Experiment [14] relates to OVCAR-5.
Experiment [15] relates to NCI-H226.
The subject of experiment [16] is MDA-N.
The test system of experiment [17] is HT-29.
The test system of experiment [18] is UACC-62.
For experiment [19], the system named is K562.
For experiment [20], the system named is SR.

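In this assay, cells in 96-well plates receive the compound at five concentrations for 48 hours. Endpoints are linearly interpolated between the surrounding concentrations. GI50 = concentration required for 50% inhibition of growth.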 The source made the active and inactive calls. No stated cut-off is given here; in the data, active = GI50 up to about 1.1 µM and inactive = higher. A value given as a limit tells only on which side of the number the result lay.

`N#Cc1c(-c2ccccc2)c(/C=N/c2ccc(Cl)cc2)c(=O)n2c1[nH]c1ccccc12`: the GI50 in experiment [1] is 65.2 µM (inactive); in [2], > 100 µM (inactive); in experiment [3], > 100 µM (inactive); in experiment [4], 4.43 µM (inactive); in experiment [5], > 100 µM (inactive); in [6] it was > 100 µM (inactive). For the same compound, the GI50 in experiment [7] is > 100 µM (inactive); in experiment [8], > 100 µM (inactive); in experiment [9], > 100 µM (inactive); in experiment [10], 73.5 µM (inactive); in experiment [11], > 100 µM (inactive); in experiment [12], > 100 µM (inactive). The GI50 is > 100 µM (inactive) in [13], > 100 µM (inactive) in experiment [14], > 100 µM (inactive) in experiment [15] and 20.4 µM (inactive) in experiment [16].

Turning to `c1ccc2nn(C3CCCO3)nc2c1` (configuration not stated), the GI50 in experiment [2], in [17], in experiment [3], in experiment [18], in experiment [5] and in experiment [6] was > 100 µM (inactive) in each case. Besides, the GI50 in experiment [7], in [19], in experiment [9], in experiment [10], in experiment [12] and in [13] was > 100 µM (inactive) throughout. In addition, the GI50 in experiment [14], in experiment [15] and in [16] was > 100 µM (inactive) each time.

As to `COc1cc(/C=N\c2nc(-c3ccc(NS(=O)(=O)c4ccc(Cl)c(OC)c4)cc3)cs2)ccc1O`, the GI50 is 50.7 µM (inactive) in experiment [1]; > 100 µM (inactive) in experiment [17]; 35.4 µM (inactive) in experiment [3]; 30.8 µM (inactive) in experiment [20]; 9.71 µM (inactive) in experiment [18]; 21 µM (inactive) in experiment [4]. The GI50 in experiment [5] was 62.8 µM (inactive); in experiment [6] it was 45 µM (inactive); in experiment [8], 41.1 µM (inactive); in [19], 27.9 µM (inactive); in experiment [9] it was 35.2 µM (inactive); in experiment [10], > 100 µM (inactive). Further, the GI50 is 33.2 µM (inactive) in experiment [11]; 27.9 µM (inactive) in experiment [13]; > 100 µM (inactive) in experiment [14]; > 100 µM (inactive) in experiment [15]; 29.6 µM (inactive) in experiment [16].

Take `O=C1C(Br)=C(C2=CC(=P(c3ccccc3)(c3ccccc3)c3ccccc3)C=C2)C(=O)C(Br)=C1C1=CC(=P(c2ccccc2)(c2ccccc2)c2ccccc2)C=C1`: the GI50 is > 100 µM (inactive) in experiment [1]; 42.1 µM (inactive) in experiment [2]; > 100 µM (inactive) in experiment [17]; > 100 µM (inactive) in experiment [20]; > 100 µM (inactive) in experiment [18]; > 100 µM (inactive) in [4]. For the same compound, the GI50 in experiment [5] was > 100 µM (inactive); in experiment [6], 18.3 µM (inactive); in experiment [7] it was > 100 µM (inactive); in experiment [8], 19.4 µM (inactive); in experiment [19], > 100 µM (inactive); in [9], 76 µM (inactive). In addition, the GI50 in experiment [10] is > 100 µM (inactive); in experiment [11] it was 41.8 µM (inactive); in [13], > 100 µM (inactive); in experiment [14], 17.9 µM (inactive); in experiment [16] it was > 100 µM (inactive).

For the compound `CN(N=O)C(=O)Nc1c[nH]c(=O)[nH]c1=O`, the GI50 in experiment [1], in experiment [2], in experiment [17], in [3], in experiment [18] and in experiment [5] was > 100 µM (inactive) each time. Further, the GI50 in [6], in experiment [7], in experiment [8], in [19], in experiment [9] and in experiment [10] was > 100 µM (inactive) in each case. Also, the GI50 in [11], in experiment [12], in [14], in [15] and in experiment [16] was > 100 µM (inactive) throughout.

As for `Cc1cc(-c2c(F)cc3c4nn([C@H]5CC[C@@H](N(C)C)CC5)c(=O)c-4cn(C4CC4)c3c2F)cc(C)n1`, the GI50 in experiment [1] is 0.214 µM (active); in experiment [2] it was 0.536 µM (active); in [17] it was 0.245 µM (active); in experiment [20], 0.0735 µM (active); in experiment [18], 0.159 µM (active); in [4], 1.11 µM (active). In addition, the GI50 is 0.289 µM (active) in experiment [5]; 0.38 µM (active) in experiment [6]; 0.0229 µM (active) in experiment [7]; 0.195 µM (active) in experiment [8]; 0.0297 µM (active) in [19]; 3.36 µM (inactive) in [9]. Further, the GI50 in experiment [10] was 0.097 µM (active); in experiment [11], 0.687 µM (active); in experiment [12], 0.29 µM (active); in experiment [13], 0.43 µM (active); in [14], 1.42 µM (inactive); in experiment [15], 0.101 µM (active). Further, in experiment [16], the GI50 is 1.56 µM (inactive).

On to `CCN1CC2=C(NC(=S)NC2c2ccc(Cl)cc2)/C(=C/c2ccc(Cl)cc2)C1` (configuration not stated), for which the GI50 in experiment [1] is 55.7 µM (inactive); in experiment [2], > 100 µM (inactive); in experiment [17], > 100 µM (inactive); in [3], 61.9 µM (inactive); in experiment [18], 29.3 µM (inactive); in experiment [4], 17.5 µM (inactive). Moreover, the GI50 in experiment [5] was 97.7 µM (inactive); in experiment [6] it was 97.3 µM (inactive); in experiment [7], 23 µM (inactive); in experiment [8], 67.1 µM (inactive); in experiment [19], 19.5 µM (inactive); in [9] it was > 100 µM (inactive). In addition, the GI50 is > 100 µM (inactive) in experiment [10]; 24.4 µM (inactive) in [11]; 53.8 µM (inactive) in experiment [12]; > 100 µM (inactive) in experiment [13]; > 100 µM (inactive) in [14]; > 100 µM (inactive) in experiment [15]. Also, the GI50 in experiment [16] was > 100 µM (inactive).

Turning to `CSC1=C(C(=O)Nc2ccc(Cl)cc2)C(N)=NC1=O`, the GI50 in [2] was > 100 µM (inactive); in experiment [17], > 100 µM (inactive); in experiment [3], > 100 µM (inactive); in experiment [20], 37.8 µM (inactive); in [18], > 100 µM (inactive); in experiment [4], > 100 µM (inactive). The GI50 in experiment [5], in [6], in [7], in experiment [8], in experiment [19] and in [9] was > 100 µM (inactive) throughout. In addition, the GI50 in [11], in experiment [12], in [13], in experiment [14] and in experiment [15] was > 100 µM (inactive) in each case.

`COc1ccc(/N=N/C(=O)NC(Cc2ccccc2)C(=O)O)cc1` (configuration not stated): the GI50 was > 100 µM (inactive) in experiment [1]; > 100 µM (inactive) in experiment [17]; > 100 µM (inactive) in experiment [3]; > 100 µM (inactive) in experiment [20]; 87.9 µM (inactive) in [18]; > 100 µM (inactive) in experiment [4]. The GI50 in experiment [5], in experiment [6], in experiment [7], in experiment [8], in experiment [19] and in experiment [9] was > 100 µM (inactive) throughout. Further, the GI50 in [10], in experiment [11], in [12], in experiment [13], in experiment [14] and in [15] was > 100 µM (inactive) in each case. The GI50 in [16] was > 100 µM (inactive).

As for `CC(=O)C1C(=O)C(=O)N(c2ccccc2)C1=O` (configuration not stated), the GI50 in [1], in experiment [2], in [17], in experiment [3], in [18] and in experiment [5] was > 100 µM (inactive) in each case. Also, the GI50 in experiment [8], in experiment [9], in [10], in experiment [11], in experiment [12] and in [13] was > 100 µM (inactive) throughout. Also, the GI50 in [14], in [15] and in experiment [16] was > 100 µM (inactive) in each case.

As for `CC(=O)O[C@H]1C(=O)[C@@]2(C)[C@H]([C@H](OC(=O)c3ccccc3)[C@]3(O)C[C@H](OC(=O)[C@H](O)[C@@H](NC(=O)c4ccccc4)c4ccccc4)C(C)=C1C3(C)C)[C@]1(OC(C)=O)CO[C@@H]1C[C@@H]2O` [PACLITAXEL], the GI50 was 0.661 µM (active) in experiment [1]; 0.054 µM (active) in [2]; 0.00273 µM (active) in experiment [17]; 0.00395 µM (active) in [3]; 0.00419 µM (active) in experiment [18]; 0.00267 µM (active) in experiment [4]. The GI50 in experiment [5] was 0.00388 µM (active); in [6], 0.029 µM (active); in experiment [7], 0.107 µM (active); in experiment [8] it was 0.00326 µM (active); in experiment [9] it was 0.486 µM (active); in experiment [10] it was 0.0129 µM (active). For the same compound, the GI50 in experiment [12] is 0.00341 µM (active); in [13], 0.00649 µM (active); in experiment [14] it was 0.0783 µM (active); in experiment [16], 0.00307 µM (active).
